# Test system: renal tubular cells (RTC)
# Assay: In vitro inflammation model: renal tubular cells co-cultivated with bacterial lysate-activated leukocytes
# Type: cell-based, rat
# Experimental: Kidneys from 1-3 day old rats were excised under aseptic conditions. The tissue was blended and dissociated by collagenase treatment (0.5%, 30 min at 37° C.). The final suspension was centrifuged for 5 min at 50 g. The pellet was resuspended in about 10 ml of DMEM/F12 (Gibco, USA) supplemented with 10% FCS (Gibco, USA) and kept for 2 min, after which the supernatant was transferred to another tube and the pellet was repeatedly resuspended. After 10 min, the renal tubules were pelleted and dissociated cells remaining in the suspension were discarded. The pellet was resuspended in DMEM/F12 with 10% FCS and seeded onto 24-well plates or onto coverslips placed in 35-mm glass-bottom Petri dishes.
# E. coli strain No. 85 was cultured overnight in a cultivation medium containing 1% tryptone, 0.5% yeast extract and 1% NaCl (Sigma-Aldrich, USA). The medium, containing roughly 10^9 colony-forming units (CFU) per ml, was pelleted at 300 g for 3 min. The bacterial lysate was prepared by diluting 30 ml of an overnight (ON) culture and diluting the precipitate in 3 ml of 0.9% NaCl followed by autoclaving for 1.5 hr at 120° C.
# 5 ml heparinized blood collected from the jugular vein of adult male rats was carefully layered over 5 ml of Ficoll-Urografin (density of 1.077 g/cm^3), and centrifuged for 30 min at 200 g. This procedure results in erythrocyte pelleting, while the mononuclear fraction of leukocytes forms an interphase ring on the Ficoll surface, which was carefully collected. Leukocytes were transferred into another tube and centrifuged for 3 min at 200 g. The resultant pellet was resuspended in 5 ml of DMEM/F12. After cell counting in a hemocytometer, the cells were diluted to a final concentration of about 1×10^5 cells per ml.
# In a two-day old renal cell culture, the medium was substituted with DMEM/F12 (400 μl per well, 1600 μl per dish), supplemented with (depending on the purpose): GSK-3β inhibitor LiCl (9 mM) (Sigma-Aldrich, USA), water-soluble antioxidant Trolox (50 μM, 100 μM) (Sigma-Aldrich, USA), MTAs 10-(6-plastoquinonyl)decyl-triphenylphosphonium (SkQ1), synthesized according to Antonenko et al. (2008) Biochemistry (Mosc) 73:1273-87), 10 nM, 100 nM), and 10-(6′-plastoquinonyl) decylrhodamine 19 SkQR1), synthesized according to Antonenko (2008), (1 nM, 10 nM, or 100 nM). Renal cells were incubated for 2 hr in this medium, followed by supplementation with leukocytes or neutrophils in DMEM/F12, or DMEM/F12, alone, in the control sample (400 μl per well, 1600 μl per dish). Simultaneously, the bacterial lysate or lipopolysaccharide (100 ng/ml, LPS, Sigma-Aldrich, USA) solution in DMEM/F12 and DMEM/F12 alone in the control sample (100 μl per well, 400 μl per dish) were added. Renal cells, leukocytes (neutrophils) were co-cultivated for 24 or 48 hr with bacterial lysate or LPS. Cell death (both necrotic and apoptotic) rate was evaluated using Annexin-V FITC Kit (Invitrogen, USA).
# The ROS-sensitive fluorescent probe 2,7-DCF-DA (Molecular Probes, USA) dissolved in DMEM/F12 without bicarbonate (final concentration 10 μM) was added to renal cells (500 μl per well of 24-well plate, 2 ml per dish) and incubated for 15 min at 37° C. followed by a wash with DMEM/F12 without bicarbonate. MDA was determined as in (Mihara and Uchiyama (1978) Anal. Biochem. 86:271-8). Fluorescent probe, DAF-2-DA (Calbiochem, San Diego, Calif., USA) was used for NO determination in living cells. The procedure was the same as for 2,7-DCF-DA. The nitrite/nitrate concentration (as products of NO oxidation) in culture media was determined using Nitrite/Nitrate Assay Kit (Sigma-Aldrich, USA). TNFα was determined using the kit Rat TNFα ELISA Ready-SET-Go (Ebioscience, USA).
# Renal cells were imaged with an LSM510 inverted confocal microscope (Carl Zeiss Inc., Jena, Germany) with excitation at 488 nm and emission collected at 500 nm-530 nm with a pinhole diameter of 150 μm. Images were processed using ImageJ software (NIH, Bethesda, Md., USA).
structure (smiles),measurement,setting,value
"CC1=C(C)C(=O)C(CCCCCCCCCC[P+](c2ccccc2)(c2ccccc2)c2ccccc2)=CC1=O [SkQ1, 10-(6-plastoquinonyl)decyl-triphenylphosphonium]",ROS production in renal cells (DCF fluorescence),"10 nM, pretreatment 2 hr, co-cultivation with activated leukocytes",suppression of ROS production after co-cultivation with activated leukocytes to levels close to those observed on controls
same,renal cell death (Annexin V-positive),"48 hr exposure to activated leukocytes, pre-incubation with drug","more pronounced than that afforded by the traditional water-soluble antioxidant, Trolox"
